From patent US9771369B2, “Compounds and methods for kinase modulation, and indications therefor” (Plexxikon Inc., priority 2014, dated 2017) come the findings set out here.

The subject of assay [1] is BaF3-FL KIT D816V or BaF3-FL KIT V560G/D816V cell line. Put plainly: Cell-based assays of c-Kit mutant kinase activity (cell proliferation, ATPlite). Conditions: at least one of the c-kit cell assays of Example 7. The protocol:
The c-Kit mutant D816V inhibitors were assessed using an engineered BaF3-FL KIT D816V or BaF3-FL KIT V560G/D816V cell line. The BaF3-FL KIT D816V cell lines were created by introduction of KIT mutant (D816V) full length constructs that render the cells dependent on the introduced kinase for growth. Inhibitors of c-Kit mutant D816V kinase reduce or eliminate the mediated c-kit mutant D816V kinase activation, resulting in reduced cell proliferation of the BaF3-FL Kit mutant D816V cells. This inhibition is measured by the effect of compound concentration on cell growth to assess IC50 values. BaF3-FL KIT D816V cells were seeded at 1×10^4 cells per well of a 96 well cell culture plate in 50 μl of cell culture medium of RPMI Medium 1× (Invitrogen #11875-093) supplemented with 10% FBS (Invitrogen #10438), 1% Non Essential Amino Acids (Invitrogen #11140), 1% Penicillin Streptomycin (Invitrogen #15140), 1% L-Glutamine (Invitrogen #25030-081). Compounds were dissolved in DMSO at a concentration of 5 mM and were serially diluted 1:3 for a total of eight points and added to the cells to a final maximum concentration of 10 μM in 100 μl cell culture medium (final concentration 0.2% DMSO). Cells were also treated with Dasatinib as a positive control. The cells were incubated at 37° C., 5% CO2 for three days. ATPlite Buffer (Perkin Elmer #6016739) and substrate were equilibrated to room temperature, and enzyme/substrate Recombinant Firefly Luciferase/D-Luciferin was reconstituted. The cell plates were equilibrated to room temperature for 30 minutes, then lysed by addition of 25 μL per well of the ATPlite Reagent. The plate was mixed for 5 minutes on a plate shaker to lyse the cells. The plates were read on a Tecan Safire using Luminescence protocol modified to read 0.1s per well. The luminescence reading assesses the ATP content, which correlates directly with cell number such that the reading as a function of compound concentration is used to determine the IC50 value.
Plasmids P75635 and P75565 were engineered for mammalian cell expression. In both plasmids, full-length human v-kit Hardy-Zuckerman 4 feline sarcoma viral oncogene homolog gene (NCBI accession NM_000222, KIT, residues M1-V976) was subcloned into the pCI-Neo vector (Promega E1841). Plasmid P75635 contains the mutation of residue Aspartic acid 816 to Valine. Plasmid P75565 contains the double mutation of residues Valine 560 to Glycine and Aspartic acid 816 to Valine. The pCI-neo Mammalian Expression Vector carries the human cytomegalovirus (CMV) immediate-early enhancer/promoter region to promote constitutive expression of KIT and contains the neomycin phosphotransferase gene, a selectable marker.
It is understood that the results of these assays may vary as assay conditions are varied. Inhibition levels determined under the conditions described herein represent a relative activity for the compounds tested under the specific conditions employed. The cell based assays are likely to show variability due to the complexity of the system and the sensitivity thereof to any changes in the assay conditions. […] In some instances, the compounds were not tested in all of the assays, or assay results were not valid.
(Cellular ATP, detected with luciferase, serves as a proxy for viable cell number.)

The target in assay [2] is c-Kit kinase (Homo sapiens (Human), UniProt P10721). Put plainly: c-Kit biochemical assay (AlphaScreen kinase activity). The method, then:
Assays for biochemical cell-based activity of c-kit kinase are known in the art, for example, as described in U.S. Pat. Nos. 7,498,342 and 7,846,941, the disclosures of which are hereby incorporated by reference as it relates to such assays. The c-kit (or kinase domain thereof) is an active kinase in AlphaScreen. IC50 values are determined with respect to inhibition of c-Kit kinase activity, where inhibition of phosphorylation of a peptide substrate is measured as a function of compound concentration. Compounds to be tested were dissolved in DMSO to a concentration of 30 mM. These were diluted 30 μl into 130 μl of DMSO (4 mM) and 1 μl was added to an assay plate. These were then serially diluted 1:3 (50 μl to 100 μl DMSO) for a total of 8 points. Plates were prepared such that each kinase reaction is 30 μl in 1× kinase buffer (50 mM HEPES, pH 7.2, 5 mM MgCl2, 5 mM MnCl2, 0.01% NP-40, 0.2% BSA), 5% DMSO and 10 μM ATP. Substrate was 100 nM biotin-(E4Y)3 (Open Source Biotech, Inc.). C-kit kinase was at 0.1 ng per sample. After incubation of the kinase reaction for 1 hour at room temperature, 5 μl of donor beads (Streptavidin coated beads (Perkin Elmer Life Science) final concentration 1 μg/ml) in stop buffer (50 mM EDTA in 1× kinase buffer) was added, the sample was mixed and incubated for 30 minutes at room temperature before adding […] of acceptor beads (PY30 coated beads (Perkin Elmer Life Science) final concentration 1 μg/ml) in stop buffer. The samples were incubated for 60 minutes at room temperature and the signal per well was read on AlphaQuest reader. Phosphorylated substrate results in binding of the PY30 antibody and association of the donor and acceptor beads such that signal correlates with kinase activity. The signal vs. compound concentration was used to determine the IC50.
Compounds were also tested using a similar assay with a 10-fold higher ATP concentration. For these samples, compounds to be tested were dissolved in DMSO to a concentration of 30 mM. These were diluted 30 μl into 130 μl of DMSO (4 mM) and 1 μl was added to an assay plate. These were then serially diluted 1:3 (50 μl to 100 μl DMSO) for a total of 8 points. Plates were prepared such that each kinase reaction is 30 μl in 1× kinase buffer (25 mM HEPES, pH 7.5, 2 mM MgCl2, 2 mM MnCl2, 0.01% […], 1 mM DTT, and 0.001% BSA), 5% DMSO and 100 μM ATP. Substrate was 30 nM biotin-(E4Y)10 (Upstate Biotech, Cat#12-440). C-kit kinase was at 1 ng per sample. After incubation of the kinase reaction for 1 hour at room temperature, 5 μl of donor beads (Streptavidin coated beads (Perkin Elmer Life Science) final concentration 10 μg/ml) in stop buffer (25 mM HEPES pH 7.5, 100 mM EDTA, 0.3% BSA) was added, the sample was mixed and incubated for 30 minutes at room temperature before adding 5 μl of acceptor beads (PY30 coated beads (Perkin Elmer Life Science) final concentration 10 μg/ml) in stop buffer. The samples were incubated for 60 minutes at room temperature and the signal per well was read on AlphaQuest or Envision reader (Perkin Elmer Life Science). Phosphorylated substrate results in binding of the PY30 antibody and association of the donor and acceptor beads such that signal correlates with kinase activity. The signal vs. compound concentration was used to determine the IC50.
The c-kit enzyme used in the above assay was either obtained from Cell Signaling Technology (Cat. #7754) or was prepared as follows: A plasmid encoding kit (DNA and encoded protein sequences shown below) was engineered using common polymerase chain reaction (PCR) methods. Complementary DNA cloned from various human tissues were purchased from Invitrogen, and these were used as substrates in the PCR reactions. Specific custom synthetic oligonucleotide primers were designed to initiate the PCR product, and also to provide the appropriate restriction enzyme cleavage sites for ligation with the plasmids. […]

c-Kit kinase, sequence (P10721 26-976): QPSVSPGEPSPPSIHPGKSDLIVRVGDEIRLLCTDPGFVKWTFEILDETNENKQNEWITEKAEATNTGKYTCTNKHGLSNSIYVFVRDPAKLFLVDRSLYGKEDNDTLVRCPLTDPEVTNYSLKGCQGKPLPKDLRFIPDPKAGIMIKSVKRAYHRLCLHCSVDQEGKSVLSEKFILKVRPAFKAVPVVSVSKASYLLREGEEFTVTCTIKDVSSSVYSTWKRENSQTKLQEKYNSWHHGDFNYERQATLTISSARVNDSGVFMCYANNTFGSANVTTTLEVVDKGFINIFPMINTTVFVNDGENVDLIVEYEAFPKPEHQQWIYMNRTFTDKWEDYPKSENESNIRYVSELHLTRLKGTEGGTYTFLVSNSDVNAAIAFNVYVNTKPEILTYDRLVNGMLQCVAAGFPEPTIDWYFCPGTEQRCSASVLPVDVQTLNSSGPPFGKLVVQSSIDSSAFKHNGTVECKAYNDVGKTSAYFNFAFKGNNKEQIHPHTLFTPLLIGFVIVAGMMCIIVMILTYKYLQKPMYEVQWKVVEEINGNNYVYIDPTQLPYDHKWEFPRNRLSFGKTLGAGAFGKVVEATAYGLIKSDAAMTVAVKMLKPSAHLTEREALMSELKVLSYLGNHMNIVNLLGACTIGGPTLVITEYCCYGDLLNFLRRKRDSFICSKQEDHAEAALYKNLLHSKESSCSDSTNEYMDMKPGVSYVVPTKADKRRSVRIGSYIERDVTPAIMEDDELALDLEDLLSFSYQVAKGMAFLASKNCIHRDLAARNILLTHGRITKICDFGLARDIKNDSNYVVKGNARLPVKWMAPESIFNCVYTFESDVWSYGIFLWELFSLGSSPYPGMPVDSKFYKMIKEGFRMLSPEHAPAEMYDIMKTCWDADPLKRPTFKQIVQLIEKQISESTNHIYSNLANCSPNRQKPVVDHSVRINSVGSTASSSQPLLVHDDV

For the compound `COc1ccc(-c2[nH]c(C3(C)CCN(c4ncnc5[nH]c(C)cc45)CC3)nc2C)cc1C` [P-3102, 4-[4-[5-(4-methoxy-3-methyl-phenyl)-4-methyl-1H-imidazol-2-yl]-4-methyl-1-piperidyl]-6-methyl-7H-pyrrolo[2,3-d]pyrimidine], the results for the IC50 in assay [1] and in assay [2] were less than 10 µM and 1 to 10 µM, respectively.
In the same order, the values of `COc1cc(-c2cc3c(N4CCC(c5nc(C)c(-c6ccc(C)c(OC)c6)[nH]5)CC4)ncnc3[nH]2)ccn1` [P-3104, 4-[4-[5-(3-methoxy-4-methyl-phenyl)-4-methyl-1H-imidazol-2-yl]-1-piperidyl]-6-(2-methoxy-4-pyridyl)-7H-pyrrolo[2,3-d]pyrimidine] are less than 10 µM and 10 to 300 µM.
The matching figures for `COc1cc(-c2[nH]c(C3(C)CCN(c4ncnc5[nH]c(C)cc45)CC3)nc2C)ccc1C` [P-3105, 4-[4-[5-(3-methoxy-4-methyl-phenyl)-4-methyl-1H-imidazol-2-yl]-4-methyl-1-piperidyl]-6-methyl-7H-pyrrolo[2,3-d]pyrimidine]: less than 10 µM and 1 to 10 µM.
The matching figures for `COc1cc(-c2[nH]c(C3CCN(c4ncnc5[nH]c(-c6ccc(C#N)cc6)cc45)CC3)nc2C)ccc1C` [P-3106, 4-[4-[4-[5-(3-methoxy-4-methyl-phenyl)-4-methyl-1H-imidazol-2-yl]-1-piperidyl]-7H-pyrrolo[2,3-d]pyrimidin-6-yl]benzonitrile]: less than 10 µM and 1 to 10 µM.
In the case of `Cc1nc(C2CCN(c3ncnc4[nH]c(-c5cnn(C(F)F)c5)cc34)CC2)[nH]c1-c1ccc(F)cc1` [P-3107, 6-[1-(difluoromethyl)pyrazol-4-yl]-4-[4-[5-(4-fluorophenyl)-4-methyl-1H-imidazol-2-yl]-1-piperidyl]-7H-pyrrolo[2,3-d]pyrimidine], the values for the IC50 in assay [1] and in assay [2] were less than 10 µM and 0.0001 to 1 µM, respectively.
The matching figures for `COc1ccc(-c2[nH]c(C3CCN(c4ncnc5[nH]c(-c6cnn(C(F)F)c6)cc45)CC3)nc2C)cc1` [P-3108, 6-[1-(difluoromethyl)pyrazol-4-yl]-4-[4-[5-(4-methoxyphenyl)-4-methyl-1H-imidazol-2-yl]-1-piperidyl]-7H-pyrrolo[2,3-d]pyrimidine]: less than 10 µM and 0.0001 to 1 µM.
The matching figures for `Cc1nc(C2CCN(c3ncnc4[nH]c(-c5ccc(F)cc5)cc34)CC2)[nH]c1-c1ccc2c(c1)OC(F)(F)O2` [P-3109, 4-[4-[5-(2,2-difluoro-1,3-benzodioxol-5-yl)-4-methyl-1H-imidazol-2-yl]-1-piperidyl]-6-(4-fluorophenyl)-7H-pyrrolo[2,3-d]pyrimidine]: less than 10 µM and 1 to 10 µM.
With `Cc1nc(C2CCN(c3ncnc4[nH]c(-c5ccc(C#N)cc5)cc34)CC2)[nH]c1-c1ccc2c(c1)OC(F)(F)O2` [P-3110, 4-[4-[4-[5-(2,2-difluoro-1,3-benzodioxol-5-yl)-4-methyl-1H-imidazol-2-yl]-1-piperidyl]-7H-pyrrolo[2,3-d]pyrimidin-6-yl]benzonitrile], the IC50 in assay [1] was less than 10 µM; in assay [2], 10 to 300 µM.
The matching figures for `COc1cc(-c2cc3c(N4CCC(c5nc(C)c(-c6ccc7c(c6)OC(F)(F)O7)[nH]5)CC4)ncnc3[nH]2)ccn1` [P-3111, 4-[4-[5-(2,2-difluoro-1,3-benzodioxol-5-yl)-4-methyl-1H-imidazol-2-yl]-1-piperidyl]-6-(2-methoxy-4-pyridyl)-7H-pyrrolo[2,3-d]pyrimidine]: less than 10 µM and 10 to 300 µM.
Take `COc1ccc(-c2[nH]c(C3CCN(c4ncnc5[nH]c(-c6ccc(C#N)cc6)cc45)CC3)nc2C)cn1` [P-3112, 4-[4-[4-[5-(6-methoxy-3-pyridyl)-4-methyl-1H-imidazol-2-yl]-1-piperidyl]-7H-pyrrolo[2,3-d]pyrimidin-6-yl]benzonitrile]: the results for the IC50 in assay [1] and in assay [2] were less than 10 µM and 0.0001 to 1 µM, respectively.
The matching figures for `Cc1nc(C2CCN(c3ncnc4[nH]c(-c5ccc(C#N)cc5)cc34)CC2)[nH]c1-c1ccc(OC(F)F)cc1` [P-3113, 4-[4-[4-[5-[4-(difluoromethoxy)phenyl]-4-methyl-1H-imidazol-2-yl]-1-piperidyl]-7H-pyrrolo[2,3-d]pyrimidin-6-yl]benzonitrile]: less than 10 µM and 1 to 10 µM.
The matching figures for `COc1cccc(-c2[nH]c(C3CCN(c4ncnc5[nH]c(-c6cnn(C(F)F)c6)cc45)CC3)nc2C)c1` [P-3114, 6-[1-(difluoromethyl)pyrazol-4-yl]-4-[4-[5-(3-methoxyphenyl)-4-methyl-1H-imidazol-2-yl]-1-piperidyl]-7H-pyrrolo[2,3-d]pyrimidine]: less than 10 µM and 0.0001 to 1 µM.
The matching figures for `Cc1nc(C2CCN(c3ncnc4[nH]c(-c5cnn(C(F)F)c5)cc34)CC2)[nH]c1-c1ccc(OC(F)F)cc1` [P-3115, 4-[4-[5-[4-(difluoromethoxy)phenyl]-4-methyl-1H-imidazol-2-yl]-1-piperidyl]-6-[1-(difluoromethyl)pyrazol-4-yl]-7H-pyrrolo[2,3-d]pyrimidine]: less than 10 µM and 0.0001 to 1 µM.

In general, IC50 refers to the concentration needed to halve the response being measured.
